Experimental data as given in patent publication US5767268A, “Sulfuric acid esters of amino sugars” (Hoffmann-La Roche Inc., priority 1995, dated 1998).
Counter-ions that a name gives are not always drawn. Like-named read-outs stand apart in the source and are kept apart here.

Experiments:
[1] = tested on: rat smooth muscle cells; test: Antiproliferative activity (ri, relative to heparin) in rat smooth muscle cells; assay type: cell-based; set-up: key: growth inhibition relative to heparin at 100 μg/ml, same experiment; conditions: 100 μg/ml, 48 h, relative to heparin at 100 μg/ml in the same experiment
Method: Antiproliferative Activity
The antiproliferative activity of a substance is expressed as the ri value which is a comparative value to the corresponding activity of heparin and which was determined in cell cultures as follows: rat smooth muscle cells were applied to cell culture plates in a density of 8×10^3 cells/well (medium: DMEM with 10% FCS. Cultivation at 37° C. and 5% CO2). After 4 hours, the number of adhered cells was determined and the substances to be tested (100 μg/ml, dissolved in H2 O) were added. […] Subsequently, the cells were incubated for 48 h. and thereafter the cell count was determined once more.
The inhibition i of the cell growth, that is, the reduction in the growth rate of the cells in percent compared to the control, was calculated from these values. [formula] the growth rate μbeing calculated as [formula] in which Z is the number of cells and d is the time in days.
Finally, ri --the relative inhibitory activity--which expresses the activity of a substance (at 100 μg/ml) in comparison to the activity of heparin in the same concentration in the same experiment, was calculated: [formula] Blood Coagulation Inhibition

[2] = molecular target: T1, thrombin (Homo sapiens, UniProt P00734); assay type: biochemical
T1 construct: purchased Roche Basle (Thrombin Reagent)
Method: (§1) Inhibition of thrombin or Factor Xa in the Chromogen Substrate Test (Teien et al., Thrombosis Research 10, 399-410 (1977)): The determination was effected in a Cobas-Bio centrifugal automatic spectrophotometer. The buffer solution used consisted of 50 mM Tris buffer, 180 mM NaCl, 7.5 mM EDTA Na2, 1% PEG 6000 and 0.02% Tween 80, pH 8.4. The test solution consisted of 50 μl of buffer, 30 μl of antithombin III (1U/ml, Kabi Diagnostica) and 20 μl of plasma which contained various concentrations of test compounds. 30 μl of sample solution and 20 μl of water with 180 μl of thrombin (1U/ml, Thrombin Reagent Roche Basle) were added to the test cuvette in the automatic analyzer. After incubation at 37° C. for 240 seconds, 60 μl of S-2238 (H-D-Phe-Pip-Arg-NH.pNA, Kabi Diagnostica, Mondal, Sweden, 0.75 mM in water) and 20 μl of water were added. The liberation of pNA (p-nitro-aniline) was followed during 60 seconds at 405 nm in 10 second intervals in comparison to water as the blank.

[3] = molecular target: T2, Factor Xa (Bos taurus, UniProt P00743); test: Blood coagulation inhibition: inhibition of Factor Xa in the Chromogen Substrate Test; assay type: biochemical
T2 sequence (P00743 41-180 limits assumed): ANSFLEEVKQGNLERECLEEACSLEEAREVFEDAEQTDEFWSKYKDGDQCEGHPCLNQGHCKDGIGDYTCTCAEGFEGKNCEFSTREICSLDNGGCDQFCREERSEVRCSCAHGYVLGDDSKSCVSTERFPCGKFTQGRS
Method: as §1
The inhibition of Factor Xa was measured in the same manner using a solution of Factor Xa (2.8 nkat/ml and 2 mM S-2222 (Bz-CO-Ile-Glu-Arg-NH.pNA, Kabi Diagnostica) in water in place of thrombin and, respectively, S-2238.

[4] = read-out: Anticoagulative Activity IC50 Thrombin; with antithrombin III and plasma, S-2238 substrate, 37° C., pH 8.4
[5] = read-out: Anticoagulative Activity IC50 Factor Xa; with antithrombin III and plasma, S-2222 substrate
[6] = with antithrombin III and plasma, S-2238 substrate, 37° C., pH 8.4
[7] = with antithrombin III and plasma, S-2222 substrate

In the case of `O=C(NC[C@H]1O[C@H](OCc2ccccc2)[C@H](NC(=O)c2ccc(NC[C@H](OS(=O)(=O)O)[C@@H](OS(=O)(=O)O)[C@H](OS(=O)(=O)O)[C@@H](COS(=O)(=O)O)OS(=O)(=O)O)c([N+](=O)[O-])c2)[C@@H](OS(=O)(=O)O)[C@@H]1OS(=O)(=O)O)c1ccc(/C=C/c2ccc(C(=O)NC[C@H]3O[C@H](OCc4ccccc4)[C@H](NC(=O)c4ccc(NC[C@H](OS(=O)(=O)O)[C@@H](OS(=O)(=O)O)[C@H](OS(=O)(=O)O)[C@@H](COS(=O)(=O)O)OS(=O)(=O)O)c([N+](=O)[O-])c4)[C@@H](OS(=O)(=O)O)[C@@H]3OS(=O)(=O)O)cc2Cl)cc1` [Example 32, (E)-2-Chloro-stilbene-4,4'-dicarboxylic acid bis-[[benzyl 2,6-didesoxy-2-[4-(2,3,4,5,6-penta-O-sulfo-D-glucit-1-ylamino)-3-nitro-benzoylamino]-3,4-di-O-sulfo-a-D-glucopyranosid-6-yl]-amide] tetradecasodium salt], the “Antiproliferative Activity ri (relative inhibitory activity versus heparin)” value [1] is reported as 1.4, the IC50 [2, 4] is reported as greater than 387 µM and the IC50 [3, 5] is reported as greater than 387 µM.

With `O=C(NC[C@H]1O[C@H](OCc2ccccc2)[C@H](NC(=O)c2ccc(N(CCOS(=O)(=O)O)C[C@H](OS(=O)(=O)O)[C@@H](OS(=O)(=O)O)[C@H](OS(=O)(=O)O)[C@@H](COS(=O)(=O)O)OS(=O)(=O)O)c([N+](=O)[O-])c2)[C@@H](OS(=O)(=O)O)[C@@H]1OS(=O)(=O)O)c1cccc(C(=O)NC[C@H]2O[C@H](OCc3ccccc3)[C@H](NC(=O)c3ccc(N(CCOS(=O)(=O)O)C[C@H](OS(=O)(=O)O)[C@@H](OS(=O)(=O)O)[C@H](OS(=O)(=O)O)[C@@H](COS(=O)(=O)O)OS(=O)(=O)O)c([N+](=O)[O-])c3)[C@@H](OS(=O)(=O)O)[C@@H]2OS(=O)(=O)O)c1` [Example 36, Isophthalic acid bis-[[benzyl 2,6-didesoxy-2-[4-[(2-hydroxysulfonyloxy-ethyl)-2,3,4,5,6-penta-O-sulfo-D-glucit-1-yl)-amino]-3-nitro-benzoylamino]-3,4-di-O-sulfo-a-D-glucopyranosid-6-yl]-amide] hexadecasodium salt] the “Antiproliferative Activity ri (relative inhibitory activity versus heparin)” value [1] was 2.1, the IC50 [2, 4] was greater than 371 µM and the IC50 [3, 5] was greater than 371 µM.

For “Biphenyl-4,4'-dicarboxylic acid bis-[[(Z)-benzyl 2,6-didesoxy-3,4-di-O-sulfo-6-(3-desoxy-2,4,5,6-tetra-0-sulfo-D-erythro-hex-2-enonoylamino)-a-D-glucopyranosid-2-yl]-amide] dodecasodium salt [Example 15]”, the “Antiproliferative Activity ri (relative inhibitory activity versus heparin)” value [1] was 1.8, the “Anticoagulative Activity IC50 Thrombin” value [2, 6] was greater than 1000 µg/mL and the “Anticoagulative Activity IC50 Factor Xa” value [3, 7] was greater than 1000 µg/mL.

For `CC(=O)Nc1cc(C(=O)N[C@H]2[C@@H](OCc3ccccc3)O[C@H](CNC(=O)c3cccc(C(=O)NC[C@H]4O[C@H](OCc5ccccc5)[C@H](NC(=O)c5ccc(N(CCOS(=O)(=O)O)C[C@H](OS(=O)(=O)O)[C@@H](OS(=O)(=O)O)[C@H](OS(=O)(=O)O)[C@@H](COS(=O)(=O)O)OS(=O)(=O)O)c(NC(C)=O)c5)[C@@H](OS(=O)(=O)O)[C@@H]4OS(=O)(=O)O)c3)[C@@H](OS(=O)(=O)O)[C@@H]2OS(=O)(=O)O)ccc1N(CCOS(=O)(=O)O)C[C@H](OS(=O)(=O)O)[C@@H](OS(=O)(=O)O)[C@H](OS(=O)(=O)O)[C@@H](COS(=O)(=O)O)OS(=O)(=O)O` [Example 38, Isophthalic acid bis-[[benzyl 2-[3-acetylamino-4-[(2,3,4,5,6-penta-O-sulfo-D-glucit-1-yl)-(2-sulfonyloxy-ethyl)-amino]-benzoylamino]-2,6-didesoxy-3,4-di-O-sulfo-a-D-glucopyranosid-6-yl]-amide] hexadecasodium salt], the “Antiproliferative Activity ri (relative inhibitory activity versus heparin)” value [1] was 1.8, the IC50 [2, 4] was greater than 368 µM and the IC50 [3, 5] was greater than 368 µM.

In the case of Heparin [reference compound], the “Antiproliferative Activity ri (relative inhibitory activity versus heparin)” value [1] is reported as 1.0, the “Anticoagulative Activity IC50 Thrombin” value [2, 6] is reported as 1.9 µg/mL and the “Anticoagulative Activity IC50 Factor Xa” value [3, 7] is reported as 2.7 µg/mL.

In the case of `O=C(NC[C@H]1O[C@H](OCc2ccccc2)[C@H](NC(=O)c2ccc(NC[C@H](OS(=O)(=O)O)[C@@H](OS(=O)(=O)O)[C@H](OS(=O)(=O)O)[C@@H](COS(=O)(=O)O)OS(=O)(=O)O)c([N+](=O)[O-])c2)[C@@H](OS(=O)(=O)O)[C@@H]1OS(=O)(=O)O)c1cccc(C(=O)NC[C@H]2O[C@H](OCc3ccccc3)[C@H](NC(=O)c3ccc(NC[C@H](OS(=O)(=O)O)[C@@H](OS(=O)(=O)O)[C@H](OS(=O)(=O)O)[C@@H](COS(=O)(=O)O)OS(=O)(=O)O)c([N+](=O)[O-])c3)[C@@H](OS(=O)(=O)O)[C@@H]2OS(=O)(=O)O)c1` [Example 33, Isophthalic acid bis-[[benzyl 2,6-didesoxy-2-[4-(2,3,4,5,6-penta-O-sulfo-D-glucit-1-ylamino)-3-nitro-benzoylamino]-3,4-di-O-sulfo-a-D-glucopyranosid-6-yl]-amide] tetradecasodium salt], the “Antiproliferative Activity ri (relative inhibitory activity versus heparin)” value [1] is reported as 1.5, the IC50 [2, 4] is reported as greater than 409 µM and the IC50 [3, 5] is reported as greater than 409 µM.

`O=C(NC[C@H]1O[C@H](OCc2ccccc2)[C@H](NC(=O)c2ccc(NC[C@H](OS(=O)(=O)O)[C@@H](OS(=O)(=O)O)[C@H](OS(=O)(=O)O)[C@@H](COS(=O)(=O)O)OS(=O)(=O)O)c([N+](=O)[O-])c2)[C@@H](OS(=O)(=O)O)[C@@H]1OS(=O)(=O)O)c1cc(C(=O)NC[C@H]2O[C@H](OCc3ccccc3)[C@H](NC(=O)c3ccc(NC[C@H](OS(=O)(=O)O)[C@@H](OS(=O)(=O)O)[C@H](OS(=O)(=O)O)[C@@H](COS(=O)(=O)O)OS(=O)(=O)O)c([N+](=O)[O-])c3)[C@@H](OS(=O)(=O)O)[C@@H]2OS(=O)(=O)O)cc(C(=O)NC[C@H]2O[C@H](OCc3ccccc3)[C@H](NC(=O)c3ccc(NC[C@H](OS(=O)(=O)O)[C@@H](OS(=O)(=O)O)[C@H](OS(=O)(=O)O)[C@@H](COS(=O)(=O)O)OS(=O)(=O)O)c([N+](=O)[O-])c3)[C@@H](OS(=O)(=O)O)[C@@H]2OS(=O)(=O)O)c1` [Example 30, Benzene-1,3,5-tricarboxylic acid tris-[[benzyl 2,6-didesoxy-2-[4-(2,3,4,5,6-penta-O-sulfo-D-glucit-1-ylamino)-3-nitro-benzoylamino]-3,4-di-O-sulfo-a-D-glucopyranosid-6-yl]-amide] henicosasodium salt] was tested, and the “Antiproliferative Activity ri (relative inhibitory activity versus heparin)” value [1] was 1.6, the IC50 [2, 4] was greater than 276 µM and the IC50 [3, 5] was greater than 276 µM.

In the case of `CC(=O)Nc1cc(C(=O)N[C@H]2[C@@H](OCc3ccccc3)O[C@H](CNC(=O)c3cccc(C(=O)NC[C@H]4O[C@H](OCc5ccccc5)[C@H](NC(=O)c5ccc(N(C)C[C@H](OS(=O)(=O)O)[C@@H](OS(=O)(=O)O)[C@H](OS(=O)(=O)O)[C@@H](COS(=O)(=O)O)OS(=O)(=O)O)c(NC(C)=O)c5)[C@@H](OS(=O)(=O)O)[C@@H]4OS(=O)(=O)O)c3)[C@@H](OS(=O)(=O)O)[C@@H]2OS(=O)(=O)O)ccc1N(C)C[C@H](OS(=O)(=O)O)[C@@H](OS(=O)(=O)O)[C@H](OS(=O)(=O)O)[C@@H](COS(=O)(=O)O)OS(=O)(=O)O` [Example 37, Isophthalic acid bis-[[benzyl 2-[3-acetylamino-4-[methyl-(2,3,4,5,6-penta-O-sulfo-D-glucit-1-yl)-amino]-benzoylamino]-2,6-didesoxy-3,4-di-O-sulfo-a-D-glucopyranosid-6-yl]-amide] tetradecasodium salt], the “Antiproliferative Activity ri (relative inhibitory activity versus heparin)” value [1] is reported as 1.9, the IC50 ([2]; with antithrombin III and plasma, S-2238 substrate, 37° C., pH 8.4; read-out: Anticoagulative Activity IC50 Thrombin) is reported as greater than 401 µM and the IC50 ([3]; with antithrombin III and plasma, S-2222 substrate; read-out: Anticoagulative Activity IC50 Factor Xa) is reported as greater than 401 µM.
